According to the supplement of paper PMC5908809:

What was measured:
[1] = tested on: normal NK cells expanded with K562-aAPC; test: percent inhibition of viability; higher = more inhibition; settings: 72 h, IL-2 2.5 ng/mL
Method: (§1)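 Drug sensitivity and resistance testing on K562-aAPC-expanded normal NK cells: 5 concentrations (10-fold steps over a 10,000-fold range), 72 h at 37 °C, viability by CellTiter-Glo normalised to DMSO and benzethonium chloride controls; DSS from the fitted curve.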

DERL-7 (IL-2 2.5 ng/mL) [2] = test: as above; settings: 72 h
IMC-1 (IL-2 20 ng/mL) [3] = test: as above; settings: 72 h
KAI3 (IL-2 2.5 ng/mL) [4] = test: as above; settings: 72 h
KHYG-1 (IL-2 2.5 ng/mL) [5] = test: as above; settings: 72 h
NK-92 (IL-2 2.5 ng/mL) [6] = test: as above; settings: 72 h
NK-YS (IL-2 2.5 ng/mL) [7] = test: as above; settings: 72 h
NKL (IL-2 2.5 ng/mL) [8] = test: as above; settings: 72 h
SNK-6 (IL-2 2.5 ng/mL) [9] = test: as above; settings: 72 h
YT (IL-2 2.5 ng/mL) [10] = test: as above; settings: 72 h
[11] = tested on: normal primary NK cells, pool 1 (3 donors) (IL-2 2.5 ng/mL); test: as above; settings: 72 h
[12] = tested on: normal primary NK cells, pool 1 (3 donors), resting (IL-2 0 ng/mL); test: as above; settings: 72 h
[13] = tested on: normal primary NK cells, pool 2 (3 donors) (IL-2 2.5 ng/mL); test: as above; settings: 72 h
[14] = tested on: normal primary NK cells, pool 3 (3 donors) (IL-2 2.5 ng/mL); test: as above; settings: 72 h
[15] = tested on: normal NK cells expanded with K562-aAPC; test: drug sensitivity score (DSS) (DSS units); higher = more sensitive; extreme values may be limits of the assay; settings: 72 h; IL-2 2.5 ng/mL
Method: as §1

DERL-7 (IL-2 2.5 ng/mL) [16] = test: as above; settings: 72 h
IMC-1 (IL-2 20 ng/mL) [17] = test: as above; settings: 72 h
KAI3 (IL-2 2.5 ng/mL) [18] = test: as above; settings: 72 h
KHYG-1 (IL-2 2.5 ng/mL) [19] = test: as above; settings: 72 h
NK-92 (IL-2 2.5 ng/mL) [20] = test: as above; settings: 72 h
NK-YS (IL-2 2.5 ng/mL) [21] = test: as above; settings: 72 h
NKL (IL-2 2.5 ng/mL) [22] = test: as above; settings: 72 h
SNK-6 (IL-2 2.5 ng/mL) [23] = test: as above; settings: 72 h
YT (IL-2 2.5 ng/mL) [24] = test: as above; settings: 72 h
[25] = tested on: normal primary NK cells, pool 1 (3 donors) (IL-2 2.5 ng/mL); test: as above; settings: 72 h
[26] = tested on: normal primary NK cells, pool 1 (3 donors), resting (IL-2 0 ng/mL); test: as above; settings: 72 h
[27] = tested on: normal primary NK cells, pool 2 (3 donors) (IL-2 2.5 ng/mL); test: as above; settings: 72 h
[28] = tested on: normal primary NK cells, pool 3 (3 donors) (IL-2 2.5 ng/mL); test: as above; settings: 72 h

## COc1cc2ncnc(Nc3ccc(F)c(Cl)c3)c2cc1OCCCN1CCOCC1 [Gefitinib] (max concentration tested 10000 nM)
[1]; 1 nM
  percent inhibition of viability: -4.93%
[1]; 10 nM
  percent inhibition of viability: -2.95%
[1]; 100 nM
  percent inhibition of viability: -4.74%
[1]; 1000 nM
  percent inhibition of viability: 12.3%
[1]; 10000 nM
  percent inhibition of viability: 56.2%
DERL-7 (IL-2 2.5 ng/mL) [2]; 1 nM
  percent inhibition of viability: 3.62%
DERL-7 (IL-2 2.5 ng/mL) [2]; 10 nM
  percent inhibition of viability: -2.09%
DERL-7 (IL-2 2.5 ng/mL) [2]; 100 nM
  percent inhibition of viability: 5.77%
DERL-7 (IL-2 2.5 ng/mL) [2]; 1000 nM
  percent inhibition of viability: 1.47%
DERL-7 (IL-2 2.5 ng/mL) [2]; 10000 nM
  percent inhibition of viability: 70.4%
IMC-1 (IL-2 20 ng/mL) [3]; 1 nM
  percent inhibition of viability: -4.89%
IMC-1 (IL-2 20 ng/mL) [3]; 10 nM
  percent inhibition of viability: 1.4%
IMC-1 (IL-2 20 ng/mL) [3]; 100 nM
  percent inhibition of viability: 2.3%
IMC-1 (IL-2 20 ng/mL) [3]; 1000 nM
  percent inhibition of viability: 2.27%
IMC-1 (IL-2 20 ng/mL) [3]; 10000 nM
  percent inhibition of viability: 13.5%
KAI3 (IL-2 2.5 ng/mL) [4]; 1 nM
  percent inhibition of viability: 0.49%
KAI3 (IL-2 2.5 ng/mL) [4]; 10 nM
  percent inhibition of viability: -0.54%
KAI3 (IL-2 2.5 ng/mL) [4]; 100 nM
  percent inhibition of viability: -4.64%
KAI3 (IL-2 2.5 ng/mL) [4]; 1000 nM
  percent inhibition of viability: 11.8%
KAI3 (IL-2 2.5 ng/mL) [4]; 10000 nM
  percent inhibition of viability: 56.9%
KHYG-1 (IL-2 2.5 ng/mL) [5]; 1 nM
  percent inhibition of viability: -2.54%
KHYG-1 (IL-2 2.5 ng/mL) [5]; 10 nM
  percent inhibition of viability: 5.78%
KHYG-1 (IL-2 2.5 ng/mL) [5]; 100 nM
  percent inhibition of viability: 8.11%
KHYG-1 (IL-2 2.5 ng/mL) [5]; 1000 nM
  percent inhibition of viability: 9.75%
KHYG-1 (IL-2 2.5 ng/mL) [5]; 10000 nM
  percent inhibition of viability: 89.9%
NK-92 (IL-2 2.5 ng/mL) [6]; 1 nM
  percent inhibition of viability: -2.12%
NK-92 (IL-2 2.5 ng/mL) [6]; 10 nM
  percent inhibition of viability: 5.54%
NK-92 (IL-2 2.5 ng/mL) [6]; 100 nM
  percent inhibition of viability: -3.03%
NK-92 (IL-2 2.5 ng/mL) [6]; 1000 nM
  percent inhibition of viability: 4.12%
NK-92 (IL-2 2.5 ng/mL) [6]; 10000 nM
  percent inhibition of viability: 64.8%
NK-YS (IL-2 2.5 ng/mL) [7]; 1 nM
  percent inhibition of viability: -1.51%
NK-YS (IL-2 2.5 ng/mL) [7]; 10 nM
  percent inhibition of viability: 1.15%
NK-YS (IL-2 2.5 ng/mL) [7]; 100 nM
  percent inhibition of viability: 7.36%
NK-YS (IL-2 2.5 ng/mL) [7]; 1000 nM
  percent inhibition of viability: 7.9%
NK-YS (IL-2 2.5 ng/mL) [7]; 10000 nM
  percent inhibition of viability: 30.8%
NKL (IL-2 2.5 ng/mL) [8]; 1 nM
  percent inhibition of viability: -4.33%
NKL (IL-2 2.5 ng/mL) [8]; 10 nM
  percent inhibition of viability: -6.47%
NKL (IL-2 2.5 ng/mL) [8]; 100 nM
  percent inhibition of viability: -2.03%
NKL (IL-2 2.5 ng/mL) [8]; 1000 nM
  percent inhibition of viability: 12%
NKL (IL-2 2.5 ng/mL) [8]; 10000 nM
  percent inhibition of viability: 62.4%
SNK-6 (IL-2 2.5 ng/mL) [9]; 1 nM
  percent inhibition of viability: 25.8%
SNK-6 (IL-2 2.5 ng/mL) [9]; 10 nM
  percent inhibition of viability: 34.7%
SNK-6 (IL-2 2.5 ng/mL) [9]; 100 nM
  percent inhibition of viability: 27.6%
SNK-6 (IL-2 2.5 ng/mL) [9]; 1000 nM
  percent inhibition of viability: 9.98%
SNK-6 (IL-2 2.5 ng/mL) [9]; 10000 nM
  percent inhibition of viability: 42.4%
YT (IL-2 2.5 ng/mL) [10]; 1 nM
  percent inhibition of viability: -3.09%
YT (IL-2 2.5 ng/mL) [10]; 10 nM
  percent inhibition of viability: 5.08%
YT (IL-2 2.5 ng/mL) [10]; 100 nM
  percent inhibition of viability: 4.23%
YT (IL-2 2.5 ng/mL) [10]; 1000 nM
  percent inhibition of viability: 5.38%
YT (IL-2 2.5 ng/mL) [10]; 10000 nM
  percent inhibition of viability: 57.6%
[11]; 1 nM
  percent inhibition of viability: -0.53%
[11]; 10 nM
  percent inhibition of viability: -12.4%
[11]; 100 nM
  percent inhibition of viability: -3.97%
[11]; 1000 nM
  percent inhibition of viability: -11.3%
[11]; 10000 nM
  percent inhibition of viability: 26.3%
[12]; 1 nM
  percent inhibition of viability: -4.9%
[12]; 10 nM
  percent inhibition of viability: -15.9%
[12]; 100 nM
  percent inhibition of viability: -4.48%
[12]; 1000 nM
  percent inhibition of viability: -7.6%
[12]; 10000 nM
  percent inhibition of viability: 64.4%
[13]; 1 nM
  percent inhibition of viability: -22.1%
[13]; 10 nM
  percent inhibition of viability: -19.1%
[13]; 100 nM
  percent inhibition of viability: 6.35%
[13]; 1000 nM
  percent inhibition of viability: 2.61%
[13]; 10000 nM
  percent inhibition of viability: 39.1%
[14]; 1 nM
  percent inhibition of viability: -15.3%
[14]; 10 nM
  percent inhibition of viability: -8.24%
[14]; 100 nM
  percent inhibition of viability: 11.2%
[14]; 1000 nM
  percent inhibition of viability: -13.2%
[14]; 10000 nM
  percent inhibition of viability: 40.1%
[15]
  drug sensitivity score: 5.01
DERL-7 (IL-2 2.5 ng/mL) [16]
  drug sensitivity score: 4.07
IMC-1 (IL-2 20 ng/mL) [17]
  drug sensitivity score: 0.3
KAI3 (IL-2 2.5 ng/mL) [18]
  drug sensitivity score: 4.99
KHYG-1 (IL-2 2.5 ng/mL) [19]
  drug sensitivity score: 6.6
NK-92 (IL-2 2.5 ng/mL) [20]
  drug sensitivity score: 4.15
NK-YS (IL-2 2.5 ng/mL) [21]
  drug sensitivity score: 2.2
NKL (IL-2 2.5 ng/mL) [22]
  drug sensitivity score: 5.38
SNK-6 (IL-2 2.5 ng/mL) [23]
  drug sensitivity score: 9.38
YT (IL-2 2.5 ng/mL) [24]
  drug sensitivity score: 3.98
[25]
  drug sensitivity score: 0.66
[26]
  drug sensitivity score: 3
[27]
  drug sensitivity score: 2.32
[28]
  drug sensitivity score: 1.42
